Results published in patent US6407029B1, “Mixtures comprising tetrakis(pyrrolidino/piperdino)phosphonium salts” (priority 1999, dated 2002).

Test: dermal toxicity
Format: in vivo
Conditions: species and method not stated
C1CCN([P+](N2CCCC2)(N2CCCC2)N2CCCC2)C1.[Cl-] [tetrakis(pyrrolidino)phosphonium chloride] gave a dermal toxicity of roughly 390 mg/kg body weight.
Work on C1CCN([P+](N2CCCCC2)(N2CCCCC2)N2CCCCC2)CC1.[Cl-] [tetrakis(piperidino)phosphonium chloride] yielded a dermal toxicity of roughly 200 mg/kg body weight.
CCN(CC)[P+](N(CC)CC)(N(CC)CC)N(CC)CC.[Br-] [tetrakis(diethylamino)phosphonium bromide, reference compound] showed a dermal toxicity of less than 50 mg/kg body weight.
